Measured values as given in patent US10717720B2, “Modified compound of andrographolide” (Heilongjiang Zhenbaodao Pharmaceutical Co., Ltd., priority 2015, dated 2020).

system: LPS-induced IL-6 release level from THP-1 cells; assay: Test of IL-6 release from THP-1 cells (LPS-induced, IL-6 in supernatant detected by CBA); assay type: cell-based; conditions: Homo sapiens, THP-1, 24 h, read-out: Inhibition rate @ 10 uM
Protocol: Test of IL-6 Release from THP-1 Cells
The inhibitory effect of the compound on LPS-induced IL-6 release level from THP-1 cells was evaluated by measuring the level of IL-6 in the cell culture supernatant.
4 ul was taken from each above solution and added to lml of culture solution to make 120 uM, 40 uM, 12 uM, 4 uM. 50 ul per well was taken and added to wells with cells to give final concentrations of 30 uM, 10 uM, 3 uM, and 1 uM, respectively. Dexamethasone was added as a positive drug into an individual cell well with a final concentration of 100 nM. • c) Cell stimulation
The LPS 1 mg/ml solution was diluted to 800 ng/ml with the culture solution and added to the cell culture wells at 50 ul/well. • d) Cell incubation and detection
The cell culture plate was placed in a 37° C. incubator, and the supernatant was collected after culturing for 24 hours. The level of IL-6 in the supernatant was detected by CBA.

Row | SMILES | inhibition at 10 µM [%]
1 | C=C1CCC2[C@]3(C)CO[C@@H](C4CCCC4)O[C@@H]3CC[C@@]2(C)[C@@H]1CCOC1CCN(C(=O)CN)CC1 (stereo partly drawn) [Compound 373, 2-Amino-1-(4-(2-((3R,4aR,6aS,7R,10bR)-3-cyclopentyl-6a,10b-dimethyl-8-methylenedecahydro-1H-naphtho[2,1-d][1,3]dioxin-7-yl)ethoxy)piperidine-1-yl)acetamide] | 30 to 60
2 | C=C1CCC2[C@]3(C)CO[C@@H](C4CCCC4)O[C@@H]3CC[C@@]2(C)[C@@H]1CCN(CC(=O)O)CC(=O)O (stereo partly drawn) [Compound 404, 2,2′-((2-((3R,4aR,6aS,7R,10bR)-3-cyclopentyl-6a,10b-dimethyl-8-methylene-decahydro-1H-naphtho[2,1-d][1,3]dioxin-7-yl)ethyl)azanediyl)diacetic acid] | < 30
3 | C=C1CCC2[C@]3(C)CO[C@@H](C4CCCC4)O[C@@H]3CC[C@@]2(C)[C@@H]1CCOc1cncc(C(=O)O)c1 (stereo partly drawn) [Compound 406, 5-(2-((3R,4aR,6aS,7R,10bR)-3-cyclopentyl-6a,10b-dimethyl-8-dihydromethylenedecahydro-1H-naphtho[2,1-d][1,3]dioxin-7-yl)ethoxy)nicotinic acid] | < 30
4 | C=C1CCC2[C@]3(C)CO[C@@H](C4CCCC4)O[C@@H]3CC[C@@]2(C)[C@@H]1CCOc1ccn(CC(=O)O)c(=O)c1 (stereo partly drawn) [Compound 428, 2-(4-(2-((3R,4aR,6aS,7R,10bR)-3-cyclopentyl-6a,10b-dimethyl-8-dihydromethylenedecahydro-1H-naphtho[2,1-d][1,3]dioxin-7-yl)ethoxy)-2-carbonylpyridin-1(2H)-yl)acetic acid] | 30 to 60

same assay, conditions: Homo sapiens; inflammatory factor IL-6 detected by CBA; compound 10 uM; LPS-stimulated THP-1 cells, supernatant after 24 hours; read-out: Inhibition rate @ 10 uM

Row | SMILES | inhibition at 10 µM [%]
5 | C=C1CCC2[C@](C)(CO)[C@H](O)CC[C@@]2(C)[C@@H]1CCOc1ccncc1 (stereo partly drawn) [Compound 385, (1R,2R,4aS,5R)-1-(hydroxymethyl)-1,4a-dimethyl-6-dihydromethylene-5-(2-(pyridin-4-oxy)ethyl) decahydronaphthalene-2-ol] | > 60
6 | C=C1CCC2[C@](C)(CO)[C@H](O)CC[C@@]2(C)[C@@H]1CCOC1CCN(C)CC1 (stereo partly drawn) [Compound 386, (1R,2R,4aS,5R)-1-(hydroxymethyl)-1,4a-dimethyl-6-dihydromethylene-5-(2-((1-methylpiperidine-4-yl)oxy)ethyl) decahydronaphthalene-2-ol] | < 30
7 | C=C1CCC2[C@]3(C)CO[C@@H](C4CCCC4)O[C@@H]3CC[C@@]2(C)[C@@H]1CCOc1ccncc1C(=O)O (stereo partly drawn) [Compound 397, 4-(2-((3R,4aR,6aS,7R,10bR)-3-cyclopentyl-6a,10b-dimethyl-8-dihydromethylenedecahydro-1H-naphtho[2,1-d][1,3]dioxin-7-yl)ethoxy)nicotinic acid] | > 60
8 | C=C1CCC2[C@]3(C)CO[C@@H](C4CCCC4)O[C@@H]3CC[C@@]2(C)[C@@H]1CCO (stereo partly drawn) [Compound 399, 2-((3R,4aR,6aS,7R,10bR)-3-cyclopentyl-6a,10b-dimethyl-8-dihydromethylenedecahydro-1H-naphtho[2,1-d][1,3]dioxin-7-yl)ethanol] | > 60
9 | C=C1CCC2[C@]3(C)CO[C@@H](C4CC4)O[C@@H]3CC[C@@]2(C)[C@@H]1CCOc1ccncc1 (stereo partly drawn) [Compound 400, 4-(2-((3R,4aR,6aS,7R,10bR)-3-cyclopropyl-6a,10b-dimethyl-8-dihydromethylenedecahydro-1H-naphtho[2,1-d][1,3]dioxin-7-yl)ethoxy)pyridine] | > 60
10 | C=C1CCC2[C@]3(C)COC(C)(C)O[C@@H]3CC[C@@]2(C)[C@@H]1CCOc1ccncc1 (stereo partly drawn) [Compound 402, 4-(2-((4aR,6aS,7R,10bR)-3,3,6a, 10b-tetramethyl-8-dihydromethylenedecahydro-1H-naphtho[2,1-d][1,3]dioxin-7-yl)ethoxy)pyridine] | > 60
11 | C=C1CCC2[C@]3(C)CO[C@@H](C4CCCC4)O[C@@H]3CC[C@@]2(C)[C@@H]1CCNCC(=O)O (stereo partly drawn) [Compound 403, 2-((2-((3R,4aR,6aS,7R,10bR)-3-cyclopentyl-6a,10b-dimethyl-8-methylenedecahydro-1H-naphtho[2,1-d][1,3]dioxin-7-yl)ethyl)amino)acetic acid] | < 30
12 | C=C1CCC2[C@]3(C)CO[C@@H](CCC(=O)OC)O[C@@H]3CC[C@@]2(C)[C@@H]1CCOc1ccncc1 (stereo partly drawn) [Compound 405] | < 30
13 | C=C1CCC2[C@]3(C)CO[C@@H](C4CCCC4)O[C@@H]3CC[C@@]2(C)[C@@H]1CCOc1ccccc1C(=O)O (stereo partly drawn) [Compound 407, 2-(2-((3R,4aR,6aS,7R,10bR)-3-cyclopentyl-6a,10b-dimethyl-8-dihydromethylenedecahydro-1H-naphtho[2,1-d][1,3]dioxin-7-yl)ethoxy)benzoic acid] | > 60
14 | C=C1CCC2[C@]3(C)CO[C@@H](CCC(=O)O)O[C@@H]3CC[C@@]2(C)[C@@H]1CCOc1ccncc1 (stereo partly drawn) [Compound 408] | < 30
15 | C=C1CCC2[C@]3(C)CO[C@@H](C4CCCC4)O[C@@H]3CC[C@@]2(C)[C@@H]1CCOc1ccc(F)cc1C(=O)O (stereo partly drawn) [Compound 409, 2-(2-((3R,4aR,6aS,7R,10bR)-3-cyclopentyl-6a,10b-dimethyl-8-dihydromethylenedecahydro-1H-naphtho[2,1-d][1,3]dioxin-7-yl)ethoxy)-5-fluorobenzoic acid] | < 30
16 | C=C1CCC2[C@]3(C)CO[C@@H](C4CCCC4)O[C@@H]3CC[C@@]2(C)[C@@H]1CCOc1ccnc(C(=O)O)c1 (stereo partly drawn) [Compound 410, 4-(2-((3R,4aR,6aS,7R,10bR)-3-cyclopentyl-6a,10b-dimethyl-8-dihydromethylenedecahydro-1H-naphtho[2,1-d][1,3]dioxin-7-yl)ethoxy)picolinic acid] | 30 to 60
17 | C=C1CCC2[C@]3(C)CO[C@@H](C(C)C)O[C@@H]3CC[C@@]2(C)[C@@H]1CCOc1ccncc1 (stereo partly drawn) [Compound 411, 4-(2-((3R,4aR,6aS,7R,10bR)-3-isopropyl-6a,10b-dimethyl-8-dihydromethylenedecahydro-1H-naphtho[2,1-d][1,3]dioxin-7-yl)ethoxy)pyridine] | > 60
18 | C=C1CCC2[C@]3(C)CO[C@@H](C4CCC4)O[C@@H]3CC[C@@]2(C)[C@@H]1CCOc1ccncc1 (stereo partly drawn) [Compound 412, 4-(2-((3R,4aR,6aS,7R,10bR)-3-cyclobutyl-6a,10b-dimethyl-8-dihydromethylenedecahydro-1H-naphtho[2,1-d][1,3]dioxin-7-yl)ethoxy)pyridine] | > 60
19 | C=C1CCC2[C@]3(C)CO[C@@H](C4CCCC4)O[C@@H]3CC[C@@]2(C)[C@@H]1CCOc1cnccc1C(=O)O (stereo partly drawn) [Compound 415, 3-(2-((3R,4aR,6aS,7R,10bR)-3-cyclopentyl-6a,10b-dimethyl-8-dihydromethylenedecahydro-1H-naphtho[2,1-d][1,3]dioxin-7-yl)ethoxy)isonicotinic acid] | > 60
20 | C=C1CCC2[C@]3(C)COC4(CCCC4)O[C@@H]3CC[C@@]2(C)[C@@H]1CCOc1ccncc1 (stereo partly drawn) [Compound 416] | > 60
21 | C=C1CCC2[C@]3(C)CO[C@@H](C4CCCC4)O[C@@H]3CC[C@@]2(C)[C@@H]1CCOc1c(C(=O)O)cncc1C(=O)O (stereo partly drawn) [Compound 417, 4-(2-((3R,4aR,6aS,7R,10bR)-3-cyclopentyl-6a,10b-dimethyl-8-dihydromethylenedecahydro-1H-naphtho[2,1-d][1,3]dioxin-7-yl)ethoxy)pyridine-3,5-dicarboxylic acid] | < 30
22 | C=C1CCC2[C@]3(C)CO[C@@H](C4CCCC4)O[C@@H]3CC[C@@]2(C)[C@@H]1CCOc1ccnc(OC)c1 (stereo partly drawn) [Compound 420, 4-(2-((3R,4aR,6aS,7R,10bR)-3-cyclopentyl-6a,10b-dimethyl-8-dihydromethylenedecahydro-1H-naphtho[2,1-d][1,3]dioxin-7-yl)ethoxy)-2-methoxypyridine] | < 30
23 | C=C1CCC2[C@]3(C)CO[C@@H](C4CCCC4)O[C@@H]3CC[C@@]2(C)[C@@H]1CCOc1ccc(C(=O)O)cc1 (stereo partly drawn) [Compound 422, 4-(2-((3R,4aR,6aS,7R,10bR)-3-cyclopentyl-6a,10b-dimethyl-8-dihydromethylenedecahydro-1H-naphtho[2,1-d][1,3]dioxin-7-yl)ethoxy)benzoic acid] | 30 to 60
24 | C=C1CCC2[C@]3(C)CO[C@@H](C4CCCC4)O[C@@H]3CC[C@@]2(C)[C@@H]1CCOc1cccc(C(=O)O)c1 (stereo partly drawn) [Compound 423, 3-(2-((3R,4aR,6aS,7R,10bR)-3-cyclopentyl-6a,10b-dimethyl-8-dihydromethylenedecahydro-1H-naphtho[2,1-d][1,3]dioxin-7-yl)ethoxy)benzoic acid] | 30 to 60
25 | C=C1CCC2[C@]3(C)CO[C@@H](C4CCCC4)O[C@@H]3CC[C@@]2(C)[C@@H]1CCOC1CCN(CC(=O)O)CC1 (stereo partly drawn) [Compound 426, 2-(4-(2-((3R,4aR,6aS,7R,10bR)-3-cyclopentyl-6a,10b-dimethyl-8-dihydromethylenedecahydro-1H-naphtho[2,1-d][1,3]dioxin-7-yl)ethoxy)piperidine-1-yl)acetic acid] | 30 to 60
26 | C=C1CCC2[C@]3(C)CO[C@@H](C4CCCCC4)O[C@@H]3CC[C@@]2(C)[C@@H]1CCOc1ccncc1 (stereo partly drawn) [Compound 429, 4-(2-((3R,4aR,6aS,7R,10bR)-3-cyclohexyl-6a,10b-dimethyl-8-dihydromethylenedecahydro-1H-naphtho[2,1-d][1,3]dioxin-7-yl)ethoxy)pyridine] | < 30
27 | C=C1CCC2[C@]3(C)CO[C@@H](C4CCCC4)O[C@@H]3CC[C@@]2(C)[C@@H]1CCOc1cc[nH]c(=O)c1 (stereo partly drawn) [Compound 430, 4-(2-((3R,4aR,6aS,7R,10bR)-3-cyclopentyl-6a,10b-dimethyl-8-dihydromethylenedecahydro-1H-naphtho[2,1-d][1,3]dioxin-7-yl)ethoxy)pyridin-2(1H)-one] | 30 to 60
